Measurements from article PMC11538131, “Degradation mechanism of difructose dianhydride III in Blautia species” (Applied Microbiology and Biotechnology, 2024).

Target: T1, GH32 β-D-fructofuranosidase BBDE_1523 (Bifidobacterium dentium, UniProt D2Q5I2)
T1 construct: gene fosC; cloned and expressed as BpDFA-IIIase (pET23a, C-terminal His-tag, E. coli BL21(DE3), TALON)
T1 sequence (D2Q5I2 1-518): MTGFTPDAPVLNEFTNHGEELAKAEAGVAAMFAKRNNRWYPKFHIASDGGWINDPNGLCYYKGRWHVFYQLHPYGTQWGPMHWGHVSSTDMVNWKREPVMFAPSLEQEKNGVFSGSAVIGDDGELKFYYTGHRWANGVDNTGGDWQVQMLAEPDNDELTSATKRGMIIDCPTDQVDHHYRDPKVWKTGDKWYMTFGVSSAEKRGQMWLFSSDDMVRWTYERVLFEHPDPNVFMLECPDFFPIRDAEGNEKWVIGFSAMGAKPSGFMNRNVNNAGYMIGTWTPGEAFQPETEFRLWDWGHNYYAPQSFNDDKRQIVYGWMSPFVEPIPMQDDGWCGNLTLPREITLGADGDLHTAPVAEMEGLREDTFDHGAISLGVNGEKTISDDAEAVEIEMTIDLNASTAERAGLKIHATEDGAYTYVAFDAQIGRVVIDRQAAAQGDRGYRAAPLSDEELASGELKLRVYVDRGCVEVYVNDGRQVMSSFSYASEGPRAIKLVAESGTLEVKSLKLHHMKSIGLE
Experiment: TLC and HPAEC-PAD
Assay type: biochemical
Conditions: 50 mM acetate pH 6.0, 37 °C, overnight; together with BpDFA-IIIase

In the case of `OC[C@H]1O[C@@](CO)(OCC2(O)OC[C@@H](O)[C@@H](O)[C@@H]2O)[C@@H](O)[C@@H]1O` (stereo partly shown) [inulobiose], the “TLC and HPAEC-PAD” value is reported as “DFA-III was completely hydrolyzed into D-fructose via inulobiose”.
